According to BindingDB's records for doi:10.1021/jm00090a003 (Universit&#233, 1992):
Values joined by “and” are separate entries in the source; they are usually repeats but may differ in a detail not shown here. Identical values can stand only once.

Legend:
[1] = target: Calcitonin gene-related peptide (CGRP) receptor binding sites; assay: ChEBML_42602
[2] = target: Calcitonin gene-related peptide type 1 receptor (Cavia porcellus); assay: Binding affinity against [125I]-hCalcitonin gene-related peptide type receptor binding sites in guinea pig atrium membrane

Row | Molecule | IC50 [1] [nM] | IC50 [2]
1 | CC(C)C[C@H](NC(=O)CNC(=O)[C@H](C)NC(=O)[C@H](CC(C)C)NC(=O)[C@H](CCCN=C(N)N)NC(=O)[C@@H](N)Cc1c[nH]cn1)C(=O)N[C@@H](CC(C)C)C(=O)N[C@@H](CO)C(=O)N[C@@H](CCCN=C(N)N)C(=O)N[C@@H](CO)C(=O)NCC(=O)NCC(=O)N[C@H](C(=O)N[C@H](C(=O)N[C@@H](CCCCN)C(=O)N[C@@H](CC(N)=O)C(=O)N[C@@H](CC(N)=O)C(=O)N[C@@H](Cc1ccccc1)C(=O)N[C@H](C(=O)N1CCC[C@H]1C(=O)N[C@H](C(=O)N[C@@H](CC(N)=O)C(=O)N[C@H](C(=O)NCC(=O)N[C@@H](CO)C(=O)N[C@@H](CCCCN)C(=O)N[C@@H](C)C(=O)N[C@@H](Cc1ccccc1)C(N)=O)C(C)C)[C@@H](C)O)C(C)C)C(C)C)C(C)C | 9 | 
2 | H-VTHALAGLLSRSGGVVKNNFVPTNVGSKAF-NH2 |  | 22 nM and 25 nM
3 | H-VTHRAAGLLSRSGGVVKNNFVPTNVGSKAF-NH2 | 14.5 | 11 nM
